Measured values published in the NIST ThermoML archive (doi:10.1021/je025625m).

Test: excess molar enthalpy (molar enthalpy of mixing); xn = mol fraction of the nth substance listed
Conditions: 298.15 K, 101 kPa, Liquid

CCCCCCCl [1-chlorohexane] + c1ccccc1
Conditions	excess molar enthalpy [kcal/mol]
x2 = 0.0723	0.00146
x2 = 0.0744	0.0017
x2 = 0.0805	0.00146
x2 = 0.0888	0.00167
x2 = 0.1407	0.00311
x2 = 0.1427	0.00351
x2 = 0.1437	0.00351
x2 = 0.2125	0.00538
x2 = 0.2862	0.00791
x2 = 0.3323	0.00992
x2 = 0.394	0.0127
x2 = 0.4431	0.0156
x2 = 0.5015	0.0189
x2 = 0.5375	0.0208
x2 = 0.541	0.0208
x2 = 0.5524	0.0218
x2 = 0.582	0.0229
x2 = 0.6153	0.0245
x2 = 0.6575	0.0256
x2 = 0.7164	0.0265
x2 = 0.7288	0.0266
x2 = 0.7352	0.0262
x2 = 0.7928	0.025
x2 = 0.8215	0.0242
x2 = 0.8484	0.0224
x2 = 0.8629	0.0207
x2 = 0.894	0.0174
x2 = 0.9274	0.0132
x2 = 0.9535	0.00918
